{"source": "patent US20190111158A1", "about": "“INJECTION COMPOSITION FOR LABELING LESION” (NATIONAL CANCER CENTER, priority 2016, published 2019)", "key": {"[1]": {"assay": "near-infrared fluorescence signal intensity of ICG-MAA complexes at various ICG/MAA mixing ratios", "type": "physicochemical", "conditions": "for near-infrared fluorescence signal intensity: MAA 0 mg/mL"}, "[2]": {"conditions": "cited from earlier work"}}}
{"smiles": "CC1(C)C(/C=C/C=C/C=C/C=C2\\N(CCCCS(=O)(=O)O)c3ccc4ccccc4c3C2(C)C)=[N+](CCCCS(=O)(=O)[O-])c2ccc3ccccc3c21", "note": "[ICG, indocyanine green]", "values": [{"measurement": "near-infrared fluorescence signal intensity", "setting": "[1]; ICG 1.3 (μN)", "value": 18}, {"measurement": "near-infrared fluorescence signal intensity", "setting": "[1]; ICG 3.9 (μN)", "value": 120}, {"measurement": "near-infrared fluorescence signal intensity", "setting": "[1]; ICG 6.5 (μN)", "value": 212}, {"measurement": "near-infrared fluorescence signal intensity", "setting": "[1]; ICG 9.0 (μN)", "value": 289}, {"measurement": "near-infrared fluorescence signal intensity", "setting": "[1]; ICG 12.9 (μN)", "value": 363}, {"measurement": "near-infrared fluorescence signal intensity", "setting": "[1]; ICG 25.8 (μN)", "value": 466}, {"measurement": "near-infrared fluorescence signal intensity", "setting": "[1]; ICG 38.7 (μN)", "value": 425}, {"measurement": "near-infrared fluorescence signal intensity", "setting": "[1]; ICG 51.6 (μN)", "value": 399}, {"measurement": "near-infrared fluorescence signal intensity", "setting": "[1]; ICG 64.5 (μN)", "value": 374}, {"measurement": "near-infrared fluorescence signal intensity", "setting": "[1]; ICG 77.4 (μN)", "value": 332}, {"measurement": "near-infrared fluorescence signal intensity", "setting": "[1]; ICG 103 (μN)", "value": 289}, {"measurement": "near-infrared fluorescence signal intensity", "setting": "[1]; ICG 258 (μN)", "value": 139}, {"measurement": "near-infrared fluorescence signal intensity", "setting": "[1]; ICG 516 (μN)", "value": 71}, {"measurement": "near-infrared fluorescence signal intensity", "setting": "[1]; ICG 774 (μN)", "value": 39}, {"measurement": "near-infrared fluorescence signal intensity", "setting": "[1]; ICG 1032 (μN)", "value": 30}, {"measurement": "ICG concentration with the highest value of near-infrared fluorescence signal intensity", "setting": "[1]; MAA was not treated", "value": 25.8, "unit": "µM"}, {"measurement": "clinical safety", "setting": "[2]; 18 breast cancer patients (T. Kitai, et al., Breast Cancer, 12:211-215, 2005)", "value": "safe clinical use"}, {"measurement": "elimination after injection into the human body", "setting": "[2]; human body", "value": "decomposed and disappears or is excreted in the urine or feces within an hour"}]}
